Patent US12559529B2, “NPY2 receptor agonists” (Boehringer Ingelheim International GmbH, priority 2019, dated 2026)
*1 amine or outer side, *2 acyl side, *3 side chain or, on linkers, in order; H or OH if unused. Where a SMILES comes first, the peptide text is derived from it. Side-chain parts run from the residue outwards. The star is where a group is joined. C18 diacid = O=C(O)CCCCCCCCCCCCCCCCC(=O)*; γGlu = O=C(O)[C@H](CCC(=O)[*:2])N[*:1]; Isovaleryl = CC(C)CC(=O)*; AEEA = NCCOCCOCC(=O)O

biological target: T1, Human Neuropeptide Y2 Receptor (Homo sapiens, UniProt P49146); assay: Radioligand binding competition assay (RLB); conditions: Table 3; human 125I-PYY (1-36) 0.02 nM, Y2 receptor membranes; read-out: Ki
T1 construct: purchased CHEMICON HTS066M
T1 sequence (P49146 1-381): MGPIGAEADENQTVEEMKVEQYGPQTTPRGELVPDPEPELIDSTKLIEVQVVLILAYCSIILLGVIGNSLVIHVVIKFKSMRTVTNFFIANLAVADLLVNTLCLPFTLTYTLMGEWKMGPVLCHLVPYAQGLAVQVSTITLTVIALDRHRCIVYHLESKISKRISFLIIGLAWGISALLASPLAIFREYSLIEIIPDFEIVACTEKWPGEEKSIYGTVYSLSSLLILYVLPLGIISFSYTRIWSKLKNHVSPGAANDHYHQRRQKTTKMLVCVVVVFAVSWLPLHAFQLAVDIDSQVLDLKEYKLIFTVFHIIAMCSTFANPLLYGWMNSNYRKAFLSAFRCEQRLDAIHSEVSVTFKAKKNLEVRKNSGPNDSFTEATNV
Procedure: The filtration RLB assay was carried out in 96-well plates in a final volume of 100 μl per well. Freeze-dried test peptides were dissolved in 100% dimethyl sulfoxide (DMSO) to stock solutions of 1 mM and serial dilutions were performed in assay buffer (50 mM HEPES, 5 mM MgCl2, 1 mM CaCl2), pH 7.4) containing 0.2% ovalbumin. […] Next, 80 μL membranes (HTS066M, ChemiSCREEN™ Human Neuropeptide Y2 Receptor Membrane Preparation, CHEMICON) were added to each well to give a final protein concentration of 0.5 μg/well. The plates were sealed and incubated at room temperature for 2 hours in a plate shaker set at 400 rpm. The incubation was stopped by vacuum filtration onto 0.5% poly-ethylene amine (PEI) presoaked GF/C filters using a 96-well FilterMate™ harvester (Perkin Elmer) followed by four washes with 300 μl/well ice-cold wash buffer (50 mM HEPES, 500 mM NaCl, pH7.4). Filter plates were then dried for 60 min at room temperature and the bottom of the plates was sealed with backing tape UniFilter-96. Finally, 50 μl/well scintillation counter cocktail (Microscint20, Packard) was added and the radioactivity was counted in the Packard TopCount NXT scintillation counter. IC50 values (the half maximal inhibitory concentration of the agonist) were calculated by nonlinear regression analysis of sigmoidal dose-response curves.

Row | Ki | Structure (SMILES)
1 | 2.5 nM | CC(C)CC(=O)N[C@@H](C)C(=O)N1CCC[C@H]1C(=O)N[C@@H](CCC(=O)O)C(=O)N[C@@H](CCCCNC(=O)COCCOCCNC(=O)COCCOCCNC(=O)CC[C@H](NC(=O)CCCCCCCCCCCCCCCCC(=O)O)C(=O)O)C(=O)N1CCC[C@H]1C(=O)N[C@@H](CCC(=O)O)C(=O)N[C@@H](CCC(=O)O)C(=O)N[C@@H](CC(=O)O)C(=O)N[C@@H](C)C(=O)N[C@@H](CCC(N)=O)C(=O)N1CCC[C@H]1C(=O)N[C@@H](CCC(=O)O)C(=O)N[C@@H](CCC(=O)O)C(=O)N[C@@H](CC(C)C)C(=O)N[C@@H](CCC(N)=O)C(=O)N[C@@H](CCC(=O)O)C(=O)N[C@@H](Cc1ccc(O)cc1)C(=O)N[C@@H](Cc1ccc(O)cc1)C(=O)N[C@H](C(=O)N[C@@H](CO)C(=O)N[C@@H](CC(C)C)C(=O)N[C@@H](CCCNC(=N)N)C(=O)N[C@@H](Cc1c[nH]cn1)C(=O)N[C@@H](Cc1ccc(O)cc1)C(=O)N[C@@H](Cc1ccc(O)cc1)C(=O)N[C@@H](CC(N)=O)C(=O)N[C@@H](Cc1c[nH]c2ccccc12)C(=O)N[C@@H](CC(C)C)C(=O)N[C@H](C(=O)N[C@@H](CCCNC(=N)N)C(=O)N[C@@H](CCC(N)=O)C(=O)N[C@@H](CCCNC(=N)N)C(=O)N[C@@H](Cc1ccc(O)cc1)C(N)=O)[C@@H](C)O)C(C)C [Compound 1, N{alpha-4}-(3-methylbutanoyl)-N{epsilon-7}-[2-(2-{2-[2-(2-{2-[(4S)-4-carboxy-4-(17-carboxyheptadecanamido)butanamido]ethoxy}ethoxy)acetamido]ethoxy}ethoxy)acetamido]-[4A,7K,9E,13Q,18Q,19E,22V,28Y,30W,31L]hPYY (4-36)] (Isovaleryl-APEK([AEEA-AEEA-γGlu-C18 diacid])PEEDAQPEELQEYYVSLRHYYNWLTRQRY-NH2)
2 | 1.43 nM | CC(C)CC(=O)N[C@@H](C)C(=O)N1CCC[C@H]1C(=O)N[C@@H](CCC(=O)O)C(=O)N[C@@H](CCCCNC(=O)COCCOCCNC(=O)COCCOCCNC(=O)CC[C@H](NC(=O)CCCCCCCCCCCCCCCCC(=O)O)C(=O)O)C(=O)N1CCC[C@H]1C(=O)N[C@@H](CCC(=O)O)C(=O)N[C@@H](CCC(=O)O)C(=O)N[C@@H](CC(=O)O)C(=O)N[C@@H](C)C(=O)N[C@@H](CO)C(=O)N1CCC[C@H]1C(=O)N[C@@H](CCC(=O)O)C(=O)N[C@@H](CCC(=O)O)C(=O)N[C@@H](CC(C)C)C(=O)N[C@@H](CCC(N)=O)C(=O)N[C@@H](CCCNC(=N)N)C(=O)N[C@@H](Cc1ccc(O)cc1)C(=O)N[C@@H](Cc1ccc(O)cc1)C(=O)N[C@H](C(=O)N[C@@H](CO)C(=O)N[C@@H](CC(C)C)C(=O)N[C@@H](CCCNC(=N)N)C(=O)N[C@@H](Cc1c[nH]cn1)C(=O)N[C@@H](Cc1ccc(O)cc1)C(=O)N[C@@H](Cc1ccc(O)cc1)C(=O)N[C@@H](CC(N)=O)C(=O)N[C@@H](Cc1c[nH]c2ccccc12)C(=O)N[C@@H](CC(C)C)C(=O)N[C@@H](CCC(N)=O)C(=O)N[C@@H](CCCNC(=N)N)C(=O)N[C@@H](CCC(N)=O)C(=O)N[C@@H](CCCNC(=N)N)C(=O)N[C@@H](Cc1ccc(O)cc1)C(N)=O)C(C)C [Compound 4, N{alpha-4}-(3-methylbutanoyl)-N{epsilon-7}-[2-(2-{2-[2-(2-{2-[(4S)-4-carboxy-4-(17-carboxyheptadecanamido)butanamido]ethoxy}ethoxy)acetamido]ethoxy}ethoxy)acetamido]-[4A,7K,9E,18Q,22V,28Y,30W,31L,32Q]hPYY (4-36)]
3 | 14.8 nM | CC(C)CC(=O)N[C@@H](C)C(=O)N1CCC[C@H]1C(=O)N[C@@H](CCC(=O)O)C(=O)N[C@@H](CCCCNC(=O)COCCOCCNC(=O)COCCOCCNC(=O)CC[C@H](NC(=O)CCCCCCCCCCCCCCCCC(=O)O)C(=O)O)C(=O)N1CCC[C@H]1C(=O)N[C@@H](CCC(=O)O)C(=O)N[C@@H](CCC(=O)O)C(=O)N[C@@H](CCC(=O)O)C(=O)N[C@H](C(=O)N[C@@H](CO)C(=O)N1CCC[C@H]1C(=O)N[C@@H](CCC(=O)O)C(=O)N[C@@H](CCC(=O)O)C(=O)N[C@@H](CC(C)C)C(=O)N[C@@H](CCC(N)=O)C(=O)N[C@@H](CCCNC(=N)N)C(=O)N[C@@H](Cc1ccc(O)cc1)C(=O)N[C@@H](Cc1ccc(O)cc1)C(=O)N[C@H](C(=O)N[C@@H](CO)C(=O)N[C@@H](CC(C)C)C(=O)N[C@@H](CCCNC(=N)N)C(=O)N[C@@H](Cc1c[nH]cn1)C(=O)N[C@@H](Cc1ccc(O)cc1)C(=O)N[C@@H](Cc1ccc(O)cc1)C(=O)N[C@@H](CC(N)=O)C(=O)N[C@@H](Cc1c[nH]c2ccccc12)C(=O)N[C@@H](CC(C)C)C(=O)N[C@H](C(=O)N[C@@H](CCCNC(=N)N)C(=O)N[C@@H](CCC(N)=O)C(=O)N[C@@H](CCCNC(=N)N)C(=O)N[C@@H](Cc1ccc(O)cc1)C(N)=O)[C@@H](C)O)C(C)C)C(C)C [Compound 5, N{alpha-4}-(3-methylbutanoyl)-N{epsilon-7}-[2-(2-{2-[2-(2-{2-[(4S)-4-carboxy-4-(17-carboxyheptadecanamido)butanamido]ethoxy}ethoxy)acetamido]ethoxy}ethoxy)acetamido]-[4A,7K,9E,11E,12V,18Q,22V,28Y,30W,31L]hPYY (4-36)] (Isovaleryl-APEK([AEEA-AEEA-γGlu-C18 diacid])PEEEVSPEELQRYYVSLRHYYNWLTRQRY-NH2)
4 | 6.52 nM | CC(C)CC(=O)N[C@@H](C)C(=O)N1CCC[C@H]1C(=O)N[C@@H](CCC(=O)O)C(=O)N[C@@H](CCCCNC(=O)COCCOCCNC(=O)COCCOCCNC(=O)CC[C@H](NC(=O)CCCCCCCCCCCCCCCCC(=O)O)C(=O)O)C(=O)N1CCC[C@H]1C(=O)N[C@@H](CCC(=O)O)C(=O)N[C@@H](CCC(=O)O)C(=O)N[C@@H](CCC(=O)O)C(=O)N[C@@H](C)C(=O)N[C@@H](CO)C(=O)N1CCC[C@H]1C(=O)N[C@@H](CCC(=O)O)C(=O)N[C@@H](CCC(=O)O)C(=O)N[C@@H](CC(C)C)C(=O)N[C@@H](CCC(N)=O)C(=O)N[C@@H](CCCNC(=N)N)C(=O)N[C@@H](Cc1ccc(O)cc1)C(=O)N[C@@H](Cc1ccc(O)cc1)C(=O)N[C@H](C(=O)N[C@@H](CO)C(=O)N[C@@H](C)C(=O)N[C@@H](CCCNC(=N)N)C(=O)N[C@@H](Cc1c[nH]cn1)C(=O)N[C@@H](Cc1ccc(O)cc1)C(=O)N[C@@H](Cc1ccc(O)cc1)C(=O)N[C@@H](CC(N)=O)C(=O)N[C@@H](Cc1c[nH]c2ccccc12)C(=O)N[C@@H](CC(C)C)C(=O)N[C@H](C(=O)N[C@@H](CCCNC(=N)N)C(=O)N[C@@H](CCC(N)=O)C(=O)N[C@@H](CCCNC(=N)N)C(=O)N[C@@H](Cc1ccc(O)cc1)C(N)=O)[C@@H](C)O)C(C)C [Compound 6, N{alpha-4}-(3-methylbutanoyl)-N{epsilon-7}-[2-(2-{2-[2-(2-{2-[(4S)-4-carboxy-4-(17-carboxyheptadecanamido)butanamido]ethoxy}ethoxy)acetamido]ethoxy}ethoxy)acetamido]-[4A,7K,9E,11E,18Q,22V,24A,28Y,30W,31L]hPYY (4-36)] (Isovaleryl-APEK([AEEA-AEEA-γGlu-C18 diacid])PEEEASPEELQRYYVSARHYYNWLTRQRY-NH2)
